Here are results for three molecules from patent US20260273047A1, “COMPOSITIONS AND METHODS FOR AMELIORATING ADVERSE EFFECTS OF THERAPIES” (MDX Management LLC, priority 2023, published 2026).

Entries after “also recorded” stand apart in the source; their conditions may differ.

For one data set, the system named is MC38. As to the kind of experiment: MC38 tumors treated intratumorally with TPI-1 and T cell activating agents. Type of data set: in vivo, C57Bl/6 mice. How it is done: Inhibition of SHP-1 was tested in vivo for tumor therapies. […] Tumor growth was measured over time until the tumors reached 2.0 cm in diameters. […] Anti-PD-1 antibody was 205[…] 50 μg by intratumoral injection every 3 days. Anti-CD3 antibody and anti-CD28 antibody were each 205[…] 50 μg by intratumoral injection in a single dose.

Data set [1] concerns malignant melanoma and advanced malignancies. Conditions: cited from earlier work.
A further data set concerns 4T1 breast cancer. The data set is classed as in vivo. Conditions: lotion twice a day; anti-PD-1 100 μg i.p. every three days; all groups prophylactic anti-TNFα mAb.

Description for 4T1 breast cancer: Efficacy of topical treatments against tumor growth and/or progression was tested using murine models of cutaneous/subcutaneous breast cancer. […] Palpable tumors were formed in 10-15 days and were traced by bioluminescence imaging. Tumor sizes were measured manually, and the volume was calculated by the equation=[length (mm)×width (mm)×width (mm)]/2. Once the total tumor volume reached ≥200 mm^3, treatments were started.
Treatment groups included: (i) Control treatment (ctl.), wherein mice received topical non-drug lotion (vehicle) only; (ii) αPD-1 treatment, wherein mice received topical non-drug lotion (vehicle) treatment along with 100 μg of anti-PD-1 monoclonal antibody once every three days through intraperitoneal injection; (iii) Topical treatment with TLR agonists only (i.e. Condition A), wherein mice received aTLR (Resiquimod (R848) and polyI:C) prepared in Johnson's lotion, each at 100 μg/ml in a final volume of 100-200 μL lotion: (iv) Topical treatment with SHP-1 inhibitors only (i.e. Condition B), wherein mice received deuterated TPI-1 (dTPI-1) at 100 μg/ml in a final volume of 100-200 μL lotion; (v) Topical treatment with Conditions A+B only in a final volume of 100-200 μL lotion; and (vi) Topical treatment with Conditions A+B in a final volume of 100-200 μL lotion and systemic αPD-1 treatment. […]

Take `O=C1C=CC(=O)C(c2cc(Cl)ccc2Cl)=C1` [TPI-1, 2-(2,5-dichlorophenyl)benzoquinone]: the “effect of adding TPI-1 to αPD-1, IL-2, anti-CD3/CD28 or αPD-1+IL-2” value in the data set on MC38 (TPI-1 1 mg/kg every 2 days, 1 mg/kg) is listed as “enabled the intratumoral injection of αPD-1, IL-2, or anti-CD3/CD28 to achieve strong anti-tumor effects; also recorded: instantly overcame treatment resistance”. Moreover, the “effect on established tumors, such as MC38, KPC, or LLC” value with MC38 (agent alone) is reported as “only minor effects”. Also, the “MC38 tumor growth / resistance” value with MC38 (intratumoral, agent without SHP-1 inhibitor, or TPI-1 alone (1 mg/kg every 2 days)) is “did not attenuate tumor growth; also recorded: did not stop tumor progression”.

For the molecule `O.O.O.O.O.O.O.O.O.O=C([O-])[C@@H]1[O][Sb]2([O-])([O][Sb]34([OH])[O][C@H]([C@H](O)CO)[C@H]([O]3)[C@H](C(=O)[O-])[O]4)[O][C@H]([C@H](O)CO)[C@@H]1[O]2.[Na+].[Na+].[Na+]` [SSG, sodium stibogluconate], the “most common toxic side-effects, frequency” value in data set [1] (thrombocytopenia, elevated serum lipase, fatigue, fever, chills, anemia, hypokalemia, pancreatitis, skin rash) is “up to 68 % of patients”. The “effect against tumor development” value in data set [1] (with interferons, followed or not by chemotherapy) is “no effect was seen against tumor development”.

Take `[2H]C1=C([2H])C(=O)C(c2c([2H])c(Cl)c([2H])c([2H])c2Cl)=C([2H])C1=O` [dTPI-1]: the “4T1 tumor growth / progression” value in the data set on 4T1 breast cancer is given as “only slightly delayed tumor progression”.
